Bridges are numbered along the chain shown (N, C = ends). Where no end group is shown, it is not given here.
Experiments:
[1] = test system: freshly isolated human primary keratinocytes; assay: Wound closure test of a sheet of primary keratinocytes; type: cell-based; settings: for wound closure activity, ranking of peptides: increasing order LRIRFTYK, CSGLRIRFTYKSGC, CLRIRFTYKC, Example 11, FIG. 10
Source text: (§1) • the HT1080 line: Cells originating from epithelial lines, tools commonly used for cell adhesion studies, were first used. The cells of the HT1080 line (fibrosarcoma, Human), American Type Culture Collection CCL-121. • primary human keratinocytes: For the cell viability and migration test, freshly isolated normal human keratinocytes were used. Human keratinocytes were obtained from preputial biopsy (surgical waste, tissue bank and cells, Edouard Herriot Hospital). The culture medium used during the experiments was the medium defined for KGM-Gold keratinocytes sold by Lonza Bioscience containing 0.15 mM of CaCl2, pH 7.2 to 7.4. The keratinocytes were obtained according to the Boyce and Ham technique (Cultivation, frozen storage, and clonal growth of normal human epidermal keratinocytes in serum free-media, Tiss Cuit. Meth. 1985, 9:83-93). The pieces of skin, after rinsing in PBS buffer containing antibiotics, were freed of the fat tissue and cut into 3 mm^2 pieces, then placed in a sterile solution of 0.25% trypsin in PBS for 16 h at 4° C. The dermis/epidermis separation was carried out in a Petri dish containing culture medium in order to stop the action of trypsin. The epidermis fragments were sucked in and discharged several times to detach the free basal cells. After centrifuging, 3.10^4 live cells were seeded per cm2 on dishes for tissue cultivation (Corning, Polylabo, France). The keratinocytes were cultured at 37° C. in a CO2 incubator (5% CO2, 95% air and 98% moisture). The sub-culture took place when the cells reached the sub-confluence. The sheet of cells was then rinsed with PBS, then covered with a solution of Trypsin-EDTA (0.05-0.02%). After a short incubation at 37° C., the cells were detached, counted, and re-seeded.
6-well plates (Costar) are covered with collagen I for 16 h then rinsed with PBS. Three inserts with two Ibidi-sterile wells (Ibidi, reference: 80209) are deposited in each of the wells. 2×10^4 keratinocytes are deposited in each insert well in KBM-Gold. After two hours of incubation in humid air at 37° C., composed of 5% CO2 and 95% atmospheric air, the culture medium is sucked out and the inserts removed. KBM-Gold with no supplement is added to each of the wells of the plate. The cells are thus: not treated (medium alone), treated with supplement-free KBM-Gold containing the peptides studied (25 μg/ml), or treated with supplement-free KBM-Gold containing EGF at 10 ng/ml (Peprotech). The cultures are stopped at 12 h and 24 h, the media are sucked out, and the cells are fixed with 2% PBS-Paraformaldehyde for 20 minutes. After the fixator has been sucked out, the cells are colored with a 0.1% solution of Crystal Violet in ultrapure water for 30 minutes. The Crystal Violet is removed and the wells are rinsed with water. Image acquisitions are carried out and the injuries are quantified using Adobe Photoshop CS3 software.

HT1080 cells = assay: Cell adhesion test (colorimetric, crystal violet) on immobilized peptide; type: cell-based, Human; settings: for adhesion response dependent on the amount of peptide immobilized in the wells: K substitution variants of LRIRATYG, Example 6, FIG. 5
Source text: as §1, with “After centrifuging, 3.10^4 live cells were seeded per cm2 on dishes for tissue cultivation (Corning, Polylabo, France). The keratinocytes were cultured at 37° C. in a CO2 incubator (5% CO2, 95% air and 98% moisture). The sub-culture took place when the cells reached the sub-confluence. The sheet of cells was then rinsed with PBS, then covered with a solution of Trypsin-EDTA (0.05-0.02%).” left out, “re-seeded. […]” for “re-seeded.”
After seeding the cells, the plates were placed in an incubator at 37° C. in a 5% CO2 atmosphere. […] The absorbance was read at 570 nm using a plate reader (Victor^2 V Spectrophotometer, Perkin Elmer). […] The negative control value is the average of the absorbance of the three control wells (BSA). This was subtracted from each of the absorbance values obtained for the experimental points. The averages of the absorbance values for each of the conditions were calculated and were presented in the form of a curve, with on the y-axis, the average values of the absorbance, and on the x-axis, the various quantities of substrate immobilized in the wells (in μg or mole). […]

[2] = test system: keratinocytes of the epidermis and other epithelial cells; settings: prior patent EP1784423 of the Applicant; cited from earlier work
[3] = 25 μg/ml peptide, 12 and 24 h, Example 5, FIG. 4

Sequence: CLRIRFTYKC (disulfide 1-10 (inferred); not fully specified)
- wound closure activity, ranking of peptides [1]: most significant activities

Sequence: CSGLRIRATYGSGC (Other sequences)
- adhesion induction activity relative to the LRIRATYG motif (HT1080 cells; low concentration of immobilized peptide, Examples 2 and 3, FIG. 1 and 2): activity being doubled at a low concentration
- wound closure activity compared to TALRIRATYGEY and LRIRATYG [1, 3]: significantly greater activity at 12 and 24 h
- wound closure activity compared with the other peptides ([1]; 25 μg/ml peptide, 12 h and 24 h, Example 4, FIG. 3): significantly greater than that of the other peptides
- wound closure compared with negative control ([1]; 25 μg/ml peptide, 12 h and/or 24 h post-injury, negative control culture medium alone, Example 4, FIG. 3): very significantly greater than that of the negative control
- wound closure activity compared with negative control ([1]; 25 μg/ml peptide, time not given, Example 5, FIG. 4): significantly greater than that of the negative control

Sequence: CSGLRIRFTYKSGC (disulfide 1-14 (inferred); not fully specified)
- wound closure activity, ranking of peptides [1]: most significant activities

Sequence: LRIRATYK (Other sequences)
- adhesion response dependent on the amount of peptide immobilized in the wells (HT1080 cells): decreases

Sequence: LRIRKTYG (Other sequences)
- adhesion response dependent on the amount of peptide immobilized in the wells (HT1080 cells): disappears

Sequence: TALRIRATYGEY (Other sequences) [reference compound]
- induction of cell adhesion [2]: specifically induces the adhesion
- wound closure activity, LRIRATYG and TALRIRATYGEY compared between them [1, 3]: equivalent activity between them
- wound closure activity compared with negative control ([1]; 25 μg/ml peptide, 24 h, negative control culture medium alone, Example 5, FIG. 4): significantly greater than that of the negative control
